Data taken from PMC7407621, “Enhancing a de novo enzyme activity by computationally-focused ultra-low-throughput screening” (Chemical Science, 2020).

Test system: GNCA4-WT (GNCA4-W229D/F290W)
Conditions: pH 7, 25 °C, 100 mM NaCl, 5% acetonitrile, His-tag

In the case of `O=[N+]([O-])c1ccc2oncc2c1` [5-nitrobenzisoxazole], the Km is reported as 3.7 ± 0.8 mM.
